Data set [1] relates to Mycobacterium abscessus PM3386 Δbla. Type of data set: cell-based. As to conditions: GSK690693 50 μM.
In data set [2] the test system is Mycobacterium tuberculosis H37Rv ΔRD1 ΔpanCD strain mc^26030. Type of data set: cell-based. Particulars: for activity against Mtb alone: auxotrophic Mtb H37Rv; for activity against Mtb with sub-MIC50 dose of meropenem: meropenem 1μg/mL with clavulonic acid.
The next data set has as its system M. marinum. The data set is described as follows: Growth inhibition and β-lactam potentiation, M. marinum. In kind it is cell-based, Mycobacterium marinum.
The conditions of data set [3]: in vivo; cited from earlier work.
In data set [4] the test system is Mycobacterium chelonae (clinical isolate). Kind of data set: MIC shift, M. chelonae.
Data set [5] deals with Mycobacterium smegmatis MC^2155 WT. The data set is described as follows: Cell viability IC50 screen. As to conditions: for potentiation of IPA by isoniazid, Msmeg: isoniazid at four times less than the lethal concentration; for potentiation with a sub-MIC50 dose of meropenem to inhibit Msmeg growth: meropenem 1.25μg/mL.
Data set [6] concerns Nocardia asteroides (clinical isolate). Kind of data set: Cell viability IC50 screen. Particulars: read-out: IC50 without a β-lactam, Nast.
The next data set deals with PknB 1–331 (Mycobacterium tuberculosis, UniProt P9WI81). In kind it is biochemical. Particulars: at concentrations tested.
Chain of PknB 1–331 (P9WI81 1-331): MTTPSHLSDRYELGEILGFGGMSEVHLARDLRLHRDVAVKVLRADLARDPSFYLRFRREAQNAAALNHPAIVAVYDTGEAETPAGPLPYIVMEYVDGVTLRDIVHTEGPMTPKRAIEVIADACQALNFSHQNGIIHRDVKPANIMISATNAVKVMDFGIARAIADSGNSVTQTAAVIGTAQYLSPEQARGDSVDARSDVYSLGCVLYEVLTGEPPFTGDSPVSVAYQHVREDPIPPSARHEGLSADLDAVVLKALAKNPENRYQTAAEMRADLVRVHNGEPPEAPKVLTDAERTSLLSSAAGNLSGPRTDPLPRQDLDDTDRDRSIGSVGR

With `CCn1c(-c2nonc2N)nc2c(C#CC(C)(C)O)ncc(OC[C@H]3CCCNC3)c21` [GSK690693, 4-(2-(4-amino-1,2,5-oxadiazol-3-yl)-1-ethyl-7-{[(3S)-3-piperidinylmethyl]oxy}−1H-imidazo[4,5-c]pyridin-4-yl)-2-methyl-3-butyn-2-ol], the “potentiation of kanamycin, Mab” value in data set [1] is reported as “no effect”. Also, in data set [2], the “activity against Mtb alone” value is “not active” and the “activity against Mtb with sub-MIC50 dose of meropenem” value was “not active”. In addition, the “potentiation of β-lactams, M. marinum” value with M. marinum (Fig. S7C) is listed as “does not potentiate”. Further, the “activity alone, M. marinum growth” value in the data set with M. marinum (Fig. S7D) is “effective on its own”. The “side-effects in phase I clinical trials” value in data set [3] is on record as “only moderate side-effects”. For the same compound, the “potentiation of meropenem, Mche” value in data set [4] (with 8 μg/mL clavulanate) is recorded as “two-fold”. For the same compound, the “potentiation of meropenem, Mche” value in data set [4] (without clavulanate) is listed as “did not see any potentiation”. In data set [5], the “potentiation of IPA by isoniazid, Msmeg” value is on record as “did not potentiate” and the “potentiation with a sub-MIC50 dose of meropenem to inhibit Msmeg growth” value is “able to potentiate”. The IC50 (as a rule, the concentration that gives 50% inhibition) in data set [6] fell in the range of 24 to 100 µM.
Consider `CCn1c(-c2nonc2N)nc2c(C#CC(C)(C)O)nc(O[C@@H](CN)c3ccccc3)cc21` [GSK1007102B], for which, in data set [2], the “activity against Mtb alone” value was “able to attenuate the growth” and the “activity against Mtb with sub-MIC50 dose of meropenem” value is on record as “activity was shifted”. Also, in data set [5], the “potentiation of IPA by isoniazid, Msmeg” value was “did not potentiate” and the “potentiation with a sub-MIC50 dose of meropenem to inhibit Msmeg growth” value is reported as “the most potent”. Moreover, the IC50 in data set [6] is 24 to 100 µM.
Regarding `CCn1c(-c2nonc2N)nc2c(C#CC(C)(C)O)nc(OC[C@H](N)c3ccccc3)cc21` [GSK943949A], the IC50 in data set [6] was in the range of 24 to 100 µM.
Same read-out and setting: under `CCn1c(-c2nonc2N)nc2c(C#CC(C)(C)O)ncc(OCC3CCNCC3)c21` [GSK554170A] stands 24 to 100 µM.
Take `CCn1c(-c2nonc2N)nc2cncc(CNC3CCNCC3)c21` [SB-747651A]: on PknB 1–331, the PknB inhibitory activity entry is “no inhibitory activity”.

These data come from article PMC6648700 (Molecular pharmaceutics, 2018).
